# From patent US20240165140A1, “MEDICATION FOR INHIBITING DNA-PKCS” (TSINGHUA UNIVERSITY, priority 2017, published 2024)
# Assays:
# [1] = system: tumor cells with normal P53 function (H1299-P53 and A549-NC); assay: CCK8 cell activity, tumor cells with normal P53 function; format: cell-based
# Description: (§1) First, a lentivirus kit (purchased from Shanghai Genepharma) was used to construct a P53 stably overexpressing H1299 cell line (H1299-P53) and a P53 stably knockdown A549 cell line […]. The P53 sequence targeted by the shRNA used to knock down P53 in A549 cells was 5′-[…]-3′ (SEQ ID NO: 4). Virus transfection and the construction of stable cell lines were performed according to the kit instructions. […] After treatment for 12 hours, the drug-containing medium was replaced with a normal medium and the cells were further cultured for 72 hours. Cell activity was measured according to the instructions of the CCK8 kit (Dojindo, Tokyo, Japan).
# In this example, another chemical drug, Doxorubicin, was used to verify that Endostatin can enhance the sensitivity of P53-deficient tumor cells to chemotherapy. Operation process was the same as in Example 5.
# [2] = system: DNA-PKcs signaling pathway; assay: Immunoblotting of DNA-PKcs signaling pathway activation induced by chemotherapeutic agent; format: cell-based; conditions: H1299 and A549 cells; for Level of the DNA-PKcs signaling pathway (p-DNA-PKcs (S2056), p-AKT (S473), p-P53 (S15)): single agent 1 h (Etoposide 10 μM, Endostatin 10 μg/ml, NU7026 10 μM); for Activation of the DNA-PKcs signaling pathway by Etoposide (p-DNA-PKcs (S2056), p-AKT (S473)): 10 μg/ml added 1 h before Etoposide 10 μM
# Source text: Tumor cells (including non-small cell lung cancer H1299 and A549 cells) were divided into six treatment groups.
# Tumor cells (including H1299 and A549 cells) were divided into six treatment groups.
# [3] = system: H1299 and A549 cells; assay: Annexin V-FITC/PI apoptosis by flow cytometry with DNA-PKcs siRNA knockdown; format: cell-based; conditions: A549 (P53 wild-type) versus H1299 (P53-deficient); 1 μM versus 10 μM, 16 h
# Description: In this example, tumor cells (including H1299 and A549 cells) were divided into eight treatment groups. In the first four groups, cells were transfected with control siRNA, and in the last four groups, cells were transfected with siRNA that specifically knocked down DNA-PKcs. The siRNA sequence of DNA-PKcs is: forward 5′-[…]-3′ (SEQ ID NO: 5), reverse 5′-[…]-3′ (SEQ ID NO: 6). The siRNA transfection method was performed according to the instructions of the transfection reagent Lipofectamine 2000. Then, in the eight groups, the cells were treated with drugs. […] Cells were collected and operations were performed according to the instructions of Annexin V-FITC/PI Apoptosis Detection Kit. Apoptosis was detected by flow cytometry. A549 cells were P53 wild-type cells, and H1299 cells were P53-deficient cells.
# [4] = system: tumor cells with normal P53 function (H1299-P53, A549-NC); assay: Cell colony formation, tumor cells with normal P53 function; format: cell-based; conditions: Etoposide 1 μM, 16 h; colonies after 14 days
# Description: After the treatment, the cells were digested with trypsin, counted, and re-plated in a six-well plate with 1000 cells per well. The cells were cultured in a normal medium for 14 days to form cell colonies.
# [5] = system: tumor cells with normal P53 function (H1299-P53, A549-NC); assay: PI staining apoptosis by flow cytometry, tumor cells with normal P53 function; format: cell-based; conditions: Etoposide 1 μM, 16 h
# Description: The apoptotic cells and adherent cells floating in the culture medium were collected, and the cells were suspended in 500 μl PBS containing 0.05 mg/ml propidium iodide (PI), stained for 15 min at room temperature in dark, and detected by flow cytometry (BD FACS Calibur). PI-positive cells represent apoptotic cells.
# [6] = system: A375 cells; assay: CCK8 cell activity, melanoma A375; format: cell-based; conditions: A375 (P53 wild type); Etoposide; operation process as in Example 5
# Description: as §1
# This example used two cell lines of another tumor type (melanoma), the MDA-MB-435S (P53 mutant) and A375 (P53 wild type) cell lines, to verify the regulatory function of Endostatin on the chemotherapeutic sensitivity of other types of tumor cells with different P53 status. Operation process was the same as in Example 5.
# [7] = system: mRNA levels of BAX, NOXA, PUMA, and P21; assay: Real-time PCR of pro-apoptotic molecules, tumor cells with normal P53 function; format: cell-based; conditions: H1299-P53, A549-NC; Etoposide 1 μM, 16 h
# Description: After the cells were treated as described above, the total RNA of the cells was extracted, and the relative changes in mRNA levels of BAX, NOXA, PUMA, and P21 in the cells were detected by real-time PCR.
# [8] = system: H1299-NC tumor; assay: Subcutaneous tumor growth in nude mice, H1299-NC; format: in vivo; conditions: Day 19, compared with control group, Endostatin 20 mg/kg i.p. once a day, Etoposide 2 mg/kg i.p. once every two days
# Description: (§2) Tumor-bearing nude mice were randomly divided into four groups with 6 to 8 animals for each group, and different drug treatments were performed. […] Tumor volume was measured every other day. 2 to 4 weeks after administration, the mice were sacrificed and the tumor tissue was removed for further use.
# [9] = system: A549-shP53 tumor; assay: Subcutaneous tumor growth in nude mice, A549-shP53; format: in vivo; conditions: A549-shP53, Day 27; compared with control group; Endostatin 20 mg/kg i.p. once a day, Etoposide 2 mg/kg i.p. once every two days
# Description: as §2
# [10] = system: H1299-P53 tumor; assay: Subcutaneous tumor growth in nude mice, H1299-P53; format: in vivo; conditions: H1299-P53, Day 19; compared with control group; Endostatin 20 mg/kg i.p. once a day, Etoposide 2 mg/kg i.p. once every two days
# Description: as §2
# [11] = system: A549-NC tumor; assay: Subcutaneous tumor growth in nude mice, A549-NC; format: in vivo; conditions: Day 27, compared with control group, Endostatin 20 mg/kg i.p. once a day, Etoposide 2 mg/kg i.p. once every two days
# Description: as §2
# [12] = system: H1299 mouse tumor model; assay: Survival of H1299 tumor-bearing mice; format: in vivo; conditions: administration as in Example 12, stopped after 25 days
# Description: as §2
# (§3) H1299 and A549 cells were cultured in a vigorous and proliferative state, and tumor collection, grouping, and administration methods were the same as in Example 12. The administration was stopped after 25 days, and the survival of the mice was recorded daily, and the survival curve of the mice was plotted.
# [13] = system: A549 tumor-bearing mice (normal P53 function); assay: Survival of A549 tumor-bearing mice; format: in vivo; conditions: A549, normal P53 function (FIG. 13B); compared with control group; administration as in Example 12, stopped after 25 days
# Description: as §2, §3
# [14] = system: PCNA and DNA-PKcs protein in H1299-NC and A549-shP53 tumor tissues; assay: Immunofluorescence of PCNA and DNA-PKcs in tumor tissue, P53-deficient mouse tumor model; format: in vivo, nude mice; conditions: H1299-NC and A549-shP53 tumors of Example 12; quantitative immunofluorescence
# Description: as §2
# (§4) The tumor tissue removed in Example 12 was fixed and embedded, and then sectioned. PCNA (a marker molecule indicating the vigorous proliferation status of tumor cells) and DNA-PKcs protein in tumor tissues were stained by immunofluorescence technique, and were observed and imaged with a laser confocal microscope (Nikon A1). The experimental results are shown in FIG. 14A-14D, in which blue represents the nucleus of DAPI-stained cells, green represents the DNA-PKcs protein, and red represents the PCNA protein. Taking the H1299-NC tumor tissue shown in FIG. 14A as an example, the first column on the left represents DNA-PKcs single staining, and the green area represents the DNA-PKcs protein expression level. The second column on the left represents the results of DNA-PKcs (green) merged with nucleus (blue), and the overlapping part is shown in cyan. The third column on the left represents PCNA single staining, and the red area represents the PCNA protein expression level, indicating the strength of tumor cell proliferation. […]
# [15] = system: PCNA and DNA-PKcs protein in H1299-P53 and A549-NC tumor tissues; assay: Immunofluorescence of PCNA and DNA-PKcs in tumor tissue, mouse tumor model with normal P53 function; format: in vivo, nude mice; conditions: H1299-P53 and A549-NC tumors of Example 12; quantitative immunofluorescence
# Description: as §2, §4
# [16] = system: DNA-PKcs, PARP, γH2AX and Caspase-3 signaling pathways; assay: Immunoblotting of DNA damage and apoptotic pathway, P53-deficient tumor cells; format: cell-based; conditions: H1299-NC, A549-shP53; Endostatin 10 μg/ml, Etoposide 10 μM 16 h, z-DEVD-fmk 10 μM; Endostatin and z-DEVD-fmk added 1 h before Etoposide
# Source text: In this example, tumor cells (H1299-NC, H1299-P53, A549-NC, A549-shP53) were divided into six treatment groups.
molecule,measurement,setting,value
"COc1cccc2c1C(=O)c1c(O)c3c(c(O)c1C2=O)C[C@@](O)(C(=O)CO)C[C@@H]3O[C@H]1C[C@H](N)[C@H](O)[C@H](C)O1 [Doxorubicin, reference compound]",Activity of tumor cells,"[1]; Doxorubicin, operation process as in Example 5",could significantly inhibit the activity of tumor cells
"COc1cc([C@@H]2c3cc4c(cc3[C@@H](O[C@@H]3O[C@@H]5CO[C@@H](C)O[C@H]5[C@H](O)[C@H]3O)[C@H]3COC(=O)[C@H]23)OCO4)cc(OC)c1O [Etoposide, reference compound]","Level of the DNA-PKcs signaling pathway (p-DNA-PKcs (S2056), p-AKT (S473))","[2]; Example 15, Etoposide 10 μM, 1 h, compared with control group",activated the level of the DNA-PKcs signaling pathway in H1299 and A549 cells
same,"Level of the DNA-PKcs signaling pathway (p-DNA-PKcs (S2056), p-AKT (S473), p-P53 (S15))",[2]; compared with control group,activated the level of the DNA-PKcs signaling pathway
same,Sensitivity of cells to the chemotherapeutic agent (apoptosis),[3],A549 cells were more sensitive to the chemotherapeutic agent
same,Activity of tumor cells,"[1]; Etoposide 0, 0.1, 1, 10 μM, 12 hours treatment, 72 hours further culture",could significantly inhibit the activity of tumor cells
same,Colony-forming ability of tumor cells,[4],could significantly inhibit the colony-forming ability of tumor cells
same,Apoptosis of tumor cells (PI-positive cells),[5],could significantly promote the apoptosis of tumor cells
same,Activity of tumor cells,[6],could significantly inhibit the activity of tumor cells
same,"mRNA levels of pro-apoptotic molecules BAX, NOXA, PUMA, P21",[7],could significantly up-regulate the above pro-apoptotic molecules
same,tumor suppression rate,[8],28.0%
same,tumor suppression rate,[9],39.3%
same,tumor suppression rate,[10],30.0%
same,tumor suppression rate,[11],34.0%
same,median survival time longer than that of the control group,[12],30.3%
same,Survival time of mice,[13],could prolong the survival time of the mice to some extent
same,Tumor cell proliferation (PCNA) and protein level of DNA-PKcs in tumor tissue,[14],can attenuate tumor cell proliferation to a certain extent and reduce the protein level of DNA-PKcs
same,Tumor cell proliferation (PCNA) and protein level of DNA-PKcs in tumor tissue,[15],could reduce the proliferation of tumor cells and reduce the protein level of DNA-PKcs
"O=c1cc(N2CCOCC2)oc2c1ccc1ccccc12 [NU7026, reference compound]","Level of the DNA-PKcs signaling pathway (p-DNA-PKcs (S2056), p-AKT (S473), p-P53 (S15))",[2]; compared with control group,did not affect the level of the DNA-PKcs signaling pathway
z-DEVD-fmk [reference compound],"DNA-PKcs, PARP, γH2AX and Caspase-3 signaling pathway levels",[16],could reverse the synergistic effect of Endostatin and Etoposide to some extent
PEG-Endostatin: natural human endostatin modified with 20 kDa mPEG-ALD at the N-terminal α-amino group (conjugate) MHSHRDFQPVLHLVALNSPLSGGMRGIRGADFQCFQQARAVGLAGTFRAFLSSRLQDLYSIVRRADRAAVPIVNLKDELLFPSWEALFSGSEGPLKPGARIFSFDGKDVLRHPTWPQKSVWHGSDPNGRRLTESYCETWRTEAPSATGQASSLLGGRLLGQSAASCHHAYIVLCIENSFMTASK,"Activation of the DNA-PKcs signaling pathway by Etoposide (p-DNA-PKcs (S2056), p-AKT (S473))","[2]; Example 15, 1 h",inhibited the activation of the DNA-PKcs signaling pathway by Etoposide
"ZBP-Endostatin: endostatin variant obtained by adding 9 additional amino acids (MGGSHHHHH) to the N-terminus of natural human endostatin, SEQ ID NO: 3 (protein, The amino acid sequence of ZBP-Endostatin) MGGSHHHHHHSHRDFQPVLHLVALNSPLSGGMRGIRGADFQCFQQARAVGLAGTFRAFLSSRLQDLYSIVRRADRAAVPIVNLKDELLFPSWEALFSGSEGPLKPGARIFSFDGKDVLRHPTWPQKSVWHGSDPNGRRLTESYCETWRTEAPSATGQASSLLGGRLLGQSAASCHHAYIVLCIENSFMTASK","Activation of the DNA-PKcs signaling pathway by Etoposide (p-DNA-PKcs (S2056), p-AKT (S473))","[2]; Example 15, 1 h",inhibited the activation of the DNA-PKcs signaling pathway by Etoposide
